According to patent US8772509B2, “Indole compounds as positive allosteric modulators of the muscarinic receptor” (Vanderbilt University, priority 2010, dated 2014):

Target: T1, mAChR M1 (UniProt P08482)
T1 sequence (P08482 1-460): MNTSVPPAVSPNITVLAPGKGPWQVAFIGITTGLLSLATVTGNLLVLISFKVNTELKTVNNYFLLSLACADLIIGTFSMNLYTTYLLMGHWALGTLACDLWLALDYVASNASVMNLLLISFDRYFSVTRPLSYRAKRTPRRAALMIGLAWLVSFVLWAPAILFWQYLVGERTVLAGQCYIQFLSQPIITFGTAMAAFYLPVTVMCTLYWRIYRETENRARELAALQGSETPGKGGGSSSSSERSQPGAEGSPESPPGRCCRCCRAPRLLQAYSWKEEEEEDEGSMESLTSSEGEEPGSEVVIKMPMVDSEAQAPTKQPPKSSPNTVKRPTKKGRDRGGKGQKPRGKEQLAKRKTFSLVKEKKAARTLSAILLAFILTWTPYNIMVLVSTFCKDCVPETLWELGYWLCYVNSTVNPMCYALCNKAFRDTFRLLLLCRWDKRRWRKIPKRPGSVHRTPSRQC
Assay: mAChR M1 cell-based functional assay (calcium mobilization, Fluo-4, FDSS)
Settings: for EC50: positive allosteric modulation of EC20 acetylcholine response, CHO-K1 cells expressing mAChR M1, read-out: Potency (EC50); for Efficacy (% ACh maximum at 30 μM): maximal calcium flux response from curve fit or response at 30 μM compound, as % of the EC80 ACh response
Protocol: Chinese hamster ovary (CHO-K1) cells stably expressing rat (r)M1 were purchased from the American Type Culture Collection and cultured according to their indicated protocol. […] To make stable rM2, hM2, rM3, hM4, and rM4 cell lines for use in calcium mobilization assays, these cells also were stably transfected with a chimeric G-protein (Gqi5) (provided by B. R. Conklin, University of California, San Francisco) using Lipofectamine 2000. rM1, hM1, rM3, hM3, rM5, and hM5 cells were grown in Ham's F-12 medium containing 10% heat-inactivated fetal bovine serum (FBS), 20 mM HEPES, and 50 μg/mL G418 sulfate. rM2-Gqi5, hM2-Gqi5, and hM4-Gqi5 cells were grown in the same medium also containing 500 μg/mL Hygromycin B. Stable rM4-Gqi5 cells were grown in DMEM containing 10% heat-inactivated FBS, 20 mM HEPES, 400 μg/mL G418 sulfate, and 500 μg/mL Hygromycin B.
For high throughput measurement of agonist-evoked increases in intracellular calcium, CHO-K1 cells stably expressing muscarinic receptors were plated in growth medium lacking G418 and hygromycin at 15,000 cells/20 μL/well in Greiner 384-well black-walled, tissue culture (TC)-treated, clear-bottom plates (VWR). Cells were incubated overnight at 37° C. and 5% CO2. […] Compound master plates were formatted in an 11 point CRC format (1:3 dilutions) in 100% DMSO with a starting concentration of 10 mM using the BRAVO liquid handler (Agilent). Test compound CRCs were then transferred to daughter plates (240 nL) using the Echo acoustic plate reformatter (Labcyte, Sunnyvale, Calif.) and then diluted into assay buffer (40 μL) to a 2× stock using a Thermo Fisher Combi (Thermo Fisher Scientific, Waltham, Mass.).
Calcium flux was measured using the Functional Drug Screening System (FDSS) 6000 (Hamamatsu Corporation, Tokyo, Japan) as an increase in the fluorescent static ratio. Compounds were applied to cells (20 μL, 2×) using the automated system of the FDSS 6000 at 4 s into the 300 s protocol and the data were collected at 1 Hz. […] Agonist activity was analyzed as a concentration-dependent increase in calcium mobilization upon compound addition. Positive allosteric modulator activity was analyzed as a concentration-dependent increase in the EC20 acetylcholine response. Antagonist activity was analyzed as a concentration-dependent decrease in the EC80 acetylcholine response. Concentration-response curves were generated using a four-parameter logistical equation in XLfit curve fitting software (IDBS, Bridgewater, N.J.) for Excel (Microsoft, Redmond, Wash.) or Prism (GraphPad Software, Inc., San Diego, Calif.).
The calcium mobilization assay was also used to determine “efficacy”. In the context of the assays carried out for the data in Table I, “efficacy” (% ACh at 30 μM) is defined as the maximal response in the calcium flux as determined by the sigmoidal curve fit of the concentration response curve, or in the absence of an acceptable curve fit, the response recorded at 30 μM test compound, stated as a percentage of the response elicited by a concentration of Ach that induces approximately 80% of a maximal (i.e. saturating) ACh response.

Row | Compound | EC50 [µM] | Efficacy (% ACh maximum at 30 μM) [%]
1 | Cc1cc(NC(=O)CS(=O)(=O)c2cn(Cc3ccc(Cl)c(Cl)c3)c3ccccc23)no1 [compound 55, 2-{1-[(3,4-dichlorophenyl)methyl]-1H-indole-3-sulfonyl}-N-(5-methyl-1,2-oxazol-3-yl)acetamide] | > 10 | 
2 | Cc1cc(NC(=O)C(Cc2ccc(F)cc2F)S(=O)(=O)c2cn(Cc3ccc(F)cc3F)c3ccccc23)no1 (centres unmarked) [compound 71, 3-(2,4-difluorophenyl)-2-{1-[(2,4-difluorophenyl)methyl]-1H-indole-3-sulfonyl}-N-(5-methyl-1,2-oxazol-3-yl)propanamide] | > 10 | 
3 | Cc1cc(NC(=O)CS(=O)(=O)c2cn(Cc3cc(Br)cc(Br)c3)c3ccccc23)no1 [compound 68, 2-{1-[(3,5-dibromophenyl)methyl]-1H-indole-3-sulfonyl}-N-(5-methyl-1,2-oxazol-3-yl)acetamide] | > 10 | 
4 | O=C(CS(=O)(=O)c1cn(Cc2cccc(-c3cccnc3)c2)c2cc(F)cc(F)c12)Nc1ccccn1 [compound 25, 2-((4,6-difluoro-1-(3-(pyridin-3-yl)benzyl)-1H-indol-3-yl)sulfonyl)-N-(pyridin-2-yl)acetamide] | 4.6 | 57
5 | Cc1cc(NC(=O)CS(=O)(=O)c2cn(Cc3cccc(Br)c3)c3ccccc23)no1 [compound 22, 2-((1-(3-bromobenzyl)-1H-indol-3-yl)sulfonyl)-N-(5-methylisoxazol-3-yl)acetamide] | 3.79 | 91
6 | Cc1cc(NC(=O)CS(=O)(=O)c2cn(Cc3cccc(-c4ccc(N5CCOCC5)nc4)c3)c3ccccc23)no1 [compound 72, N-(5-methyl-1,2-oxazol-3-yl)-2-[1-({3-[6-(morpholin-4-yl)pyridin-3-yl]phenyl}methyl)-1H-indole-3-sulfonyl]acetamide] | > 10 | 
7 | O=C(CS(=O)(=O)c1cn(Cc2cc(Br)ccc2F)c2ccccc12)Nc1ccccc1 [compound 59, 2-{1-[(5-bromo-2-fluorophenyl)methyl]-1H-indole-3-sulfonyl}-N-phenylacetamide] | > 10 | 
8 | Cc1cc(NC(=O)CS(=O)(=O)c2cn(Cc3cccc(-c4cc[nH]n4)c3F)c3ccccc23)no1 [compound 23, 2-((1-(2-fluoro-3-(1H-pyrazol-3-yl)benzyl)-1H-indol-3-yl)sulfonyl)-N-(5-methylisoxazol-3-yl)acetamide] | 4.4 | 103
9 | Cc1cc(NC(=O)CS(=O)(=O)c2cn(Cc3ccc(Br)cc3F)c3ccccc23)no1 [compound 60, 2-{1-[(4-bromo-2-fluorophenyl)methyl]-1H-indole-3-sulfonyl}-N-(5-methyl-1,2-oxazol-3-yl)acetamide] | > 10 | 
10 | Cc1cc(NC(=O)CS(=O)(=O)c2cn(Cc3cccc(-c4cccnc4)c3)c3cc(F)cc(F)c23)no1 [compound 8, 2-((4,6-difluoro-1-(3-(pyridin-3-yl)benzyl)-1H-indol-3-yl)sulfonyl)-N-(5-methylisoxazol-3-yl)acetamide] | 2.4 | 68
11 | O=C(CS(=O)(=O)c1cn(Cc2cccc(Br)c2)c2cc(F)cc(F)c12)Nc1noc2ccccc12 [compound 21, N-(benzo[d]isoxazol-3-yl)-2-((1-(3-bromobenzyl)-4,6-difluoro-1H-indol-3-yl)sulfonyl)acetamide] | 3.7 | 72
12 | O=C(CS(=O)(=O)c1cn(Cc2cccc(Br)c2)c2cc(F)cc(F)c12)NC1COC1 [compound 34, 2-((1-(3-bromobenzyl)-4,6-difluoro-1H-indol-3-yl)sulfonyl)-N-(oxetan-3-yl)acetamide] | > 10 | 43
13 | [N-]=[N+]=Nc1cccc(Cn2cc(S(=O)(=O)CC(=O)Nc3ccccn3)c3c(F)cc(F)cc32)c1 [compound 13, 2-((1-(3-azidobenzyl)-4,6-difluoro-1H-indol-3-yl)sulfonyl)-N-(pyridin-2-yl)acetamide] | 2.8 | 53
14 | Cc1cc(NC(=O)C(Cc2cccc(Cl)c2)S(=O)(=O)c2cn(Cc3cccc(Cl)c3)c3ccccc23)no1 (centres unmarked) [compound 69, 3-(3-chlorophenyl)-2-{1-[(3-chlorophenyl)methyl]-1H-indole-3-sulfonyl}-N-(5-methyl-1,2-oxazol-3-yl)propanamide] | > 10 | 
15 | O=C(CS(=O)(=O)c1cn(Cc2cccc(-c3ccc(F)nc3)c2)c2cc(F)cc(F)c12)Nc1ccccn1 [compound 27, 2-((4,6-difluoro-1-(3-(6-fluoropyridin-3-yl)benzyl)-1H-indol-3-yl)sulfonyl)-N-(pyridin-2-yl)acetamide] | 5.2 | 42
16 | O=C(CS(=O)(=O)c1cn(Cc2cccc(Br)c2)c2cc(F)cc(F)c12)Nc1ccccn1 [compound 6, 2-((1-(3-bromobenzyl)-4,6-difluoro-1H-indol-3-yl)sulfonyl)-N-(pyridin-2-yl)acetamide] | 2.4 | 62
17 | Cc1cc(NC(=O)CS(=O)(=O)c2cn(Cc3cccc(-c4cnn(C)c4)c3)c3ccccc23)no1 [compound 12, 2-((1-(3-(1-methyl-1H-pyrazol-4-yl)benzyl)-1H-indol-3-yl)sulfonyl)-N-(5-methylisoxazol-3-yl)acetamide] | 2.75 | 95
18 | O=C(CS(=O)(=O)c1cn(Cc2cccc(Br)c2)c2cc(F)cc(F)c12)Nc1cccnn1 [compound 7, 2-((1-(3-bromobenzyl)-4,6-difluoro-1H-indol-3-yl)sulfonyl)-N-(pyridazin-3-yl)acetamide] | 2.4 | 63
19 | O=C(CS(=O)(=O)c1cn(Cc2cccc(Br)c2)c2cc(F)cc(F)c12)Nc1cncnc1 [compound 37, 2-((1-(3-bromobenzyl)-4,6-difluoro-1H-indol-3-yl)sulfonyl)-N-(pyrimidin-5-yl)acetamide] | > 10 | 48
20 | O=C(CS(=O)(=O)c1cn(Cc2cccc(-n3ccnn3)c2)c2cc(F)cc(F)c12)Nc1ccccn1 [compound 10, 2-((1-(3-(1H-1,2,3-triazol-1-yl)benzyl)-4,6-difluoro-1H-indol-3-yl)sulfonyl)-N-(pyridn-2-yl)acetamide] | 2.6 | 67
21 | Cc1cc(NC(=O)CS(=O)(=O)c2cn(Cc3ccc(F)c(Br)c3)c3ccccc23)no1 [compound 61, 2-{1-[(3-bromo-4-fluorophenyl)methyl]-1H-indole-3-sulfonyl}-N-(5-methyl-1,2-oxazol-3-yl)acetamide] | > 10 | 
22 | COc1ccccc1Cn1cc(S(=O)(=O)CC(=O)Nc2cc(C)on2)c2ccccc21 [compound 47, 2-{1-[(2-methoxyphenyl)methyl]-1H-indole-3-sulfonyl}-N-(5-methyl-1,2-oxazol-3-yl)acetamide] | > 10 | 
23 | Cc1cc(NC(=O)CSc2cn(Cc3ccccc3Cl)c3ccccc23)no1 [compound 42, 2-({1-[(2-chlorophenyl)methyl]-1H-indol-3-yl}sulfanyl)-N-(5-methyl-1,2-oxazol-3-yl)acetamide] | > 10 | 
24 | O=C(CS(=O)(=O)c1cn(Cc2cccc(-c3cccnc3F)c2)c2cc(F)cc(F)c12)Nc1ccccn1 [compound 24, 2-((4,6-difluoro-1-(3-(2-fluoropyridin-3-yl)benzyl)-1H-indol-3-yl)sulfonyl)-N-(pyridin-2-yl)acetamide] | 4.4 | 38
